Reference: patent publication US9539222B2, “Methods to inhibit intracellular growth of bacteria and to treat bacteria-mediated diseases” (priority 2012, dated 2017)
Where two headings read alike, the source gives them in different places.

How the values were obtained:
[1] = test system: H37Rv strain of Mycobacterium tuberculosis (MTB); type: cell-based
Mycobacterium bovis BCG = type: cell-based; conditions: for difference from control (untreated infected cells) in mROS and BCG survival: THP1 cells or hMDM infected with BCG, 2 mM MET, 10 mM NAC or GSH, 24 hrs; for effect of ROS scavenger on Metformin-induced inhibition of growth of intracellular BCG: infected THP1 cells, 2 mM Metformin, 10 mM scavenger
[2] = test system: reactive oxygen species (ROS); type: cell-based, human
mycobacterial phagosomes = type: cell-based, human
[3] = mice; cited from earlier work
[4] = test system: Mycobacterium tuberculosis (MTB); experiment: Acute infection model of MTB in C57BL/6 mice, lung and spleen bacillary load (CFU); type: in vivo
BCG = experiment: microbe, parasite or virus in culture; type: cell-based, Mycobacterium bovis BCG; conditions: for IC50: Mycobacterium tuberculosis variant bovis BCG, BCG, read-out: IC50 in MIC assay
[5] = 50 mg/Kg oral, 2-4 weeks of treatment

N[C@@H](CCC(=O)N[C@@H](CS)C(=O)NCC(=O)O)C(=O)O [GSH, glutathione]
difference from control in MTB survival (CFU) [1]: not significant
difference from control (untreated infected cells) in mROS and BCG survival (Mycobacterium bovis BCG): not significant
effect of ROS scavenger on Metformin-induced inhibition of growth of intracellular BCG (Mycobacterium bovis BCG): abolishment

CN(C)C(=N)NC(=N)N.Cl [Metformin, N,N-dimethyl imidodicarbonimidic diamide hydrochloride]
dose dependence of inhibition of intracellular MTB [1]: dose-dependent inhibition
time in which inhibition of mycobacterial growth occurred (Mycobacterium bovis BCG; BCG-infected THP1 cells, 2 mM, no further reduction at later time points): ≤ 24 h
dose dependence of inhibition of intracellular mycobacteria (Mycobacterium bovis BCG; BCG-infected THP1 cells, CFU at 24 hrs): dose-dependent inhibition
mROS, time- and dose-dependent change [2]: increased significantly
production of cytoplasmic ROS (cROS), CM-H2DCFDA [2]: but not of cytoplasmic ROS (cROS)
production of mitochondrial ROS (mROS), MitoSox [2]: increased

CC(=O)N[C@@H](CS)C(=O)O [NAC, N-acetylcysteine]
difference from control in MTB survival (CFU) ([1]; […], 2 mM MET, 10 mM NAC or GSH, 24 hrs): not significant
difference from control (untreated infected cells) in mROS and BCG survival (Mycobacterium bovis BCG): not significant
effect of ROS scavenger on Metformin-induced inhibition of growth of intracellular BCG (Mycobacterium bovis BCG): abolishment
effect on Metformin-induced phagosomal acidification (mycobacterial phagosomes): prevented

Oc1ccc(/C=C/c2cc(O)cc(O)c2)cc1 [Resveratrol, 3,5,4′-trihydroxy-trans-stilbene]
Oral LD50 [3]: ~2000 mg/kg
bacilli load in the lung compared to controls ([4]; 25 mg/Kg RES alone, oral): did not reduce
CFU in the lung compared to control [4, 5]: less CFU
CFU in the spleen compared to control [4, 5]: less CFU

CCCCc1oc2ccccc2c1C(=O)c1cc(I)c(OCCN(CC)CC)c(I)c1 [amiodarone, (2-{4-[(2-butyl-1-benzofuran-3-yl)carbonyl]-2,6-diiodophenoxy}ethyl)diethylamine]
direct anti-mycobacterial activity in MIC assay (BCG; in vitro BCG growth): showed inhibition of mycobacterial growth

CO[C@H]1C[C@@H]2CC[C@@H](C)[C@@](O)(O2)C(=O)C(=O)N2CCCC[C@H]2C(=O)O[C@H]([C@H](C)C[C@@H]2CC[C@@H](O)[C@H](OC)C2)CC(=O)[C@H](C)/C=C(\C)[C@@H](O)[C@@H](OC)C(=O)[C@H](C)C[C@H](C)/C=C/C=C/C=C/1C [rapamycin]
IC50 (BCG): ~13.8 µM

C=C(C)[C@H]1Cc2c(ccc3c2O[C@@H]2COc4cc(OC)c(OC)cc4[C@@H]2C3=O)O1 [rotenone]
production of cytoplasmic ROS (cROS), CM-H2DCFDA [2]: upregulated
production of mitochondrial ROS (mROS), MitoSox [2]: upregulated

CNC1C(OC2C(OC3C(O)C(O)C(NC(=N)N)C(O)C3NC(=N)N)OC(C)C2(O)C=O)OC(CO)C(O)C1O (stereo not shown) [streptomycin, 5-(2,4-diguanidino-3,5,6-trihydroxy-cyclohexoxy)-4-[4,5-dihydroxy-6-(hydroxymethyl)-3-methylamino-tetrahydropyran-2-yl]oxy-3-hydroxy-2-methyl-tetrahydrofuran-3-carbaldehyde]
IC50 (BCG): ~0.2 µM
